These are literature values, as cited in US20260283953A1, “FORMULATIONS OF PHOSPHOLIPID CARRIER COMPLEXES” (priority 2024, published 2026).

Where two headings read alike, the source gives them in different places.

The conditions of data set [1]: in vivo.
For data set [2] the following is noted: for testosterone levels: oral 60 mg dose.
For data set [3] the following is noted: natural testosterone.

Turning to `O=C(/C=C/C=C/c1ccc2c(c1)OCO2)N1CCCCC1` [Piperine, (2E,4E)-5-(2H-1,3-Benzodioxol-5-yl)-1-(piperidin-1-yl)penta-2,4-dien-1-one], the solubility in water entry was “dissolves poorly in water”.

Take `COc1cc(/C=C/C(=O)CC(=O)/C=C/c2ccc(O)c(OC)c2)ccc1O` [curcumin]: the bioavailability result in data set [1] was “low bioavailability”.

In the case of `C[C@]12CC[C@H]3[C@@H](CCC4=CC(=O)CC[C@@]43C)[C@@H]1CC[C@@H]2O` [testosterone, 17β-Hydroxyandrost-4-en-3-one], in data set [2] (first pass through the intestines and liver), the “absorption and metabolism with oral delivery” value is “well-absorbed but extensively metabolized”. Further, the “inactivation after oral delivery” value in data set [2] (men, doses of less than 200 mg) is “rapidly and completely inactivated”. Moreover, the testosterone levels entry in data set [2] (men) is “no effect”; in data set [2] (men with liver cirrhosis) it was “High levels”; in data set [2] (prepubertal boys and women), “measurably increase”. For the same molecule, the circulating testosterone levels result in data set [2] (oral, large doses such as 200 mg) was “significant increases”. The oral bioavailability in data set [2] (young women, single 25 mg dose) is 3.6±2.5%. The half-life result in data set [3] is “under 1 hour”.
